“Also recorded” adds a separate entry of the source.
System: Mell hESC
Assay: Differentiation assay for small molecule differentiation of hESC to hESC-RPEC; ANEB outgrowths scored for % putative RPE morphology at day 14
Type: cell-based, human
Excerpt: FIG. 31 Establishment of differentiation conditions for hESC-RPEC differentiation using small molecules. (A): Differentiation assay for small molecule differentiation of Mell hESC to hESC-RPEC. […] (B): Optimal ANEB size determined between 1000-1500 cells/body. (C): Optimal window for both seeding ANEBs and switching to RDM is day 6. […] For each experiment, ANEB outgrowths were scored for % putative RPE morphology at day 14. Differentiation is represented as heat map scores (0=0%, 1=5-10%, 2=10-15%, 3=15-25%, 5=25-40%, 6=40-55%, 7=55-70%, 8=80+%).
HESC cultures were prepared for differentiation by supplementing mTeSR™1 with 10 uM Y-27632 (Rock inhibitor) (Sigma) for at least one hour prior to single cell dissociation with TrypLE™ Express (Gibco), counted and replated onto plates pre-coated with reduced growth factor Matrigel™ (RGFMG) (Corning) at high density (150,000 cells/cm2) in mTeSR™1 medium, supplemented with 10 uM Y-27632 and cultured overnight. The following day, cultures were refed fresh mTeSR™1 medium, without Rock inhibitor cultured for another 18-48 hours, or until cell cultures were nearly confluent (FIG. 2). Subsequently, cells were cultured in Primary Differentiation Medium (PDM) (containing 100 nM LDN193189, 10 uM SB431542, 5 uM CKI-7, and supplemented with 10 mM Nicotinamide) for 45 hours, before being further supplemented with 10 uM Rock inhibitor for an hour (FIG. 3 A). Differentiating cultures were single cell dissociated using TryPLE™ Express, re-suspended in PDM supplemented with 10 mM Nicotinamide and 10 uM Rock inhibitor, and formed into 3D cell aggregates of approximately 1500 cells/aggregate, using the AggreWellP400 (StemCell Technologies) (FIG. 3B), and cultured overnight. After 12-18 hours, the cell aggregates. The cell aggregates were cultured in suspension in Corning® Costar® Ultra-Low attachment 6-well plates (Corning) in primary differentiation medium (with 10 mM Nicotinamide), until day 4 or day 6, to differentiate as generate 3D aggregates of hESC-derived eyefield cells (ANEBs) to eyefield progenitor cells (FIG. 4A). At day 6, ANEBs were re-seeded onto RGFMG coated plates in RPEC Differentiation Medium (RDM) (containing 250 nM IDE-2 and 3 uM CHIR99021). ANEBs attached to the plate and the outgrowths were assessed for the appearance of immature RPE-like morphology (FIG. 8). ANEB outgrowths were cultured in RDM until day 14. Some putative hESC-RPEC cultures were maintained in an undisrupted form on the plates, while others were single cell dissociated and re-plated onto RGFMG at 150,000 cells/cm2 and cultured in Base Medium 2 (BM2), or RPEC Culture Medium (RCM), both supplemented with 10 uM Y-27632 until medium change the following day. hESC-RPEC cultures that are not dissociated may be maintained in BM2, without further supplementation, or in RMM, to generate mature hESC-RPECs within 21-28 days of the differentiation process (FIG. 9).
The hESC methods of the invention relating to the differentiation of human SCs towards the eyefield progenitor cells, that are Rax+ on day 4 and day 6 (FIG. 6), which has been confirmed by qRT-PCR expression of Rax, LHX2, Pax6(−5a) (FIG. 7). […] FIG. 31 A is a summary of experimental conditions designed to test the ability of each molecule to contribute to efficient RPEC differentiation within a 14-day period. Primary differentiation was from day 0-day 6, followed by secondary differentiation, or RPE differentiation, from day 6 to day 14. Briefly, hESC differentiation to RPE in the absence of LDN is low. […] The role of CKI-7 on differentiation efficiency was tested in combination with a variety of combinations to determine the optimal signalling requirements for differentiation. The small molecule IDE-2 was tested for its ability to functionally replace Activin A in a context for which it had not previously been tested. […] Although the effect of NIC on hESC-RPEC differentiation was positive during differentiation towards to the eyefield, but negative after. […]

[1] = molecule used in secondary (RPE) differentiation conditions, day 6 to day 14
[2] = molecule used in primary differentiation conditions, day 0-day 6

## Cc1c[nH]c(-c2cnc(NCCNc3ccc(C#N)cn3)nc2-c2ccc(Cl)cc2Cl)n1 [CHIR, CHIR99021]
[1]
  hESC-RPEC differentiation (% putative RPE morphology at day 14): essential for highly efficient RPEC differentiation

## NCCNS(=O)(=O)c1ccc(Cl)c2ccncc12 [CKI-7]
[2]
  hESC-RPEC differentiation (% putative RPE morphology at day 14): greatly enhanced; also recorded: further enhanced

## O=C(O)CCCCCC(=O)NN=C1CCCC1 [IDE-2]
Combined use of IDE-2 with the GSK3b inhibitor, secondary differentiation day 6 to day 14
  hESC-RPEC differentiation by day 14: highest degree of hESC-RPEC differentiation
[1]
  hESC-RPEC differentiation (% putative RPE morphology at day 14): enhances RPEC differentiation

## c1ccc2c(-c3cnn4cc(-c5ccc(N6CCNCC6)cc5)cnc34)ccnc2c1 [LDN, LDN193189]
[2]
  hESC-RPEC differentiation (% putative RPE morphology at day 14): improved differentiation

## NC(=O)c1cccnc1 [NIC, nicotinamide]
[2]
  hESC-RPEC differentiation (% putative RPE morphology at day 14): positive
[1]
  hESC-RPEC differentiation (% putative RPE morphology at day 14): suppresses RPEC differentiation; also recorded: negative

— patent US12116594B2, “Methods for differentiating cells” (BOND UNIVERSITY LTD, priority 2015, dated 2024)
